Assay results taken from patent US5281604A, “Angiotensin II receptor blocking 2,3,6-substituted quinazolinones” (American Cyanamid Company, priority 1993, dated 1994).
“And” between values parts separate entries of the source, which are not always exact repeats. Equal values may be shown once.

Tested on: ANGIOTENSIN II (AII) VASOPRESSOR RESPONSE
Assay: AII Challenge: blockade of the angiotensin II vasopressor response in conscious spontaneously hypertensive rats
Type: in vivo, rat (Male Okamoto-Aoki SHR)
[1] = 3 mg/kg i.v., AII 0.05 mcg/kg IV, 30 min post dose
[2] = 3 mg/kg i.v., AII 0.05 mcg/kg IV, 60 min post dose
[3] = 3 mg/kg i.v., AII 0.05 mcg/kg IV, 90 min post dose
[4] = 3 mg/kg i.v., AII 0.05 mcg/kg IV, 120 min post dose
[5] = 3 mg/kg i.v., AII 0.05 mcg/kg IV, 180 min post dose
[6] = 3 mg/kg i.v., AII 0.05 mcg/kg IV, 240 min post dose
[7] = 3 mg/kg i.v., AII 0.05 mcg/kg IV, 300 min post dose
[8] = 3 mg/kg i.v., AII 0.1 mcg/kg IV, 30 min post dose
[9] = 3 mg/kg i.v., AII 0.1 mcg/kg IV, 60 min post dose
[10] = 3 mg/kg i.v., AII 0.1 mcg/kg IV, 90 min post dose
[11] = 3 mg/kg i.v., AII 0.1 mcg/kg IV, 120 min post dose
[12] = 3 mg/kg i.v., AII 0.1 mcg/kg IV, 180 min post dose
[13] = 3 mg/kg i.v., AII 0.1 mcg/kg IV, 240 min post dose
[14] = 3 mg/kg i.v., AII 0.1 mcg/kg IV, 300 min post dose
[15] = 3 mg/kg p.o., AII 0.05 mcg/kg IV, 30 min post dose
[16] = 3 mg/kg p.o., AII 0.05 mcg/kg IV, 60 min post dose
[17] = 3 mg/kg p.o., AII 0.05 mcg/kg IV, 90 min post dose
[18] = 3 mg/kg p.o., AII 0.05 mcg/kg IV, 120 min post dose
[19] = 3 mg/kg p.o., AII 0.05 mcg/kg IV, 180 min post dose
[20] = 3 mg/kg p.o., AII 0.05 mcg/kg IV, 240 min post dose
[21] = 3 mg/kg p.o., AII 0.1 mcg/kg IV, 30 min post dose
[22] = 3 mg/kg p.o., AII 0.1 mcg/kg IV, 60 min post dose
[23] = 3 mg/kg p.o., AII 0.1 mcg/kg IV, 90 min post dose
[24] = 3 mg/kg p.o., AII 0.1 mcg/kg IV, 120 min post dose
[25] = 3 mg/kg p.o., AII 0.1 mcg/kg IV, 180 min post dose
[26] = 3 mg/kg p.o., AII 0.1 mcg/kg IV, 240 min post dose

## CCCCc1nc2ccc([C@H]3OC[C@H]4[C@@H]3ON3[C@@H]4CCC3(C)C)cc2c(=O)n1Cc1ccc(-c2ccccc2-c2nnn[nH]2)cc1 (relative stereo) [Example 7, (1α, 3aα, 8aβ, 8bα)-2-Butyl-6-(octahydro-6,6-dimethylfuro[3,4-d]pyrrolo[1,2-b]isoxazol-1-yl)-3-[[2'-(1H-tetrazol-5-yl)[1,1'-biphenyl]-4-yl]methyl]-4 (3H)-quinazolinone]
[1]
  % Inhibition: 91%
  Average Change: 4.5 mmHg
  Control Before AII (single rat): 245 mmHg and 214 mmHg
  Response After AII (single rat): 245 mmHg and 223 mmHg
  Response Change (single rat): 0 mmHg and 9 mmHg
[2]
  % Inhibition: 84%
  Average Change: 7.5 mmHg
  Control Before AII (single rat): 240 mmHg and 225 mmHg
  Response After AII (single rat): 255 mmHg and 225 mmHg
  Response Change (single rat): 15 mmHg and 0 mmHg
[3]
  % Inhibition: 89%
  Average Change: 5 mmHg
  Control Before AII (single rat): 235 mmHg
  Response After AII (single rat): 240 mmHg
  Response Change (single rat): 5 mmHg
[4]
  % Inhibition: 84%
  Average Change: 7.5 mmHg
  Control Before AII (single rat): 225 mmHg and 220 mmHg
  Response After AII (single rat): 235 mmHg and 225 mmHg
  Response Change (single rat): 10 mmHg and 5 mmHg
[5]
  % Inhibition: 79%
  Average Change: 10 mmHg
  Control Before AII (single rat): 225 mmHg and 215 mmHg
  Response After AII (single rat): 235 mmHg and 225 mmHg
  Response Change (single rat): 10 mmHg
[6]
  % Inhibition: 63%
  Average Change: 17.5 mmHg
  Control Before AII (single rat): 225 mmHg and 215 mmHg
  Response After AII (single rat): 235 mmHg and 240 mmHg
  Response Change (single rat): 10 mmHg and 25 mmHg
[7]
  % Inhibition: 74%
  Average Change: 12.5 mmHg
  Control Before AII (single rat): 235 mmHg and 210 mmHg
  Response After AII (single rat): 242 mmHg and 228 mmHg
  Response Change (single rat): 7 mmHg and 18 mmHg
[8]
  % Inhibition: 90%
  Average Change: 5 mmHg
  Control Before AII (single rat): 255 mmHg and 220 mmHg
  Response After AII (single rat): 260 mmHg and 225 mmHg
  Response Change (single rat): 5 mmHg
[9]
  % Inhibition: 86%
  Average Change: 7.5 mmHg
  Control Before AII (single rat): 250 mmHg and 215 mmHg
  Response After AII (single rat): 255 mmHg and 225 mmHg
  Response Change (single rat): 5 mmHg and 10 mmHg
[10]
  % Inhibition: 83%
  Average Change: 9 mmHg
  Control Before AII (single rat): 235 mmHg and 225 mmHg
  Response After AII (single rat): 238 mmHg and 240 mmHg
  Response Change (single rat): 3 mmHg and 15 mmHg
[11]
  % Inhibition: 86%
  Average Change: 7.5 mmHg
  Control Before AII (single rat): 235 mmHg and 215 mmHg
  Response After AII (single rat): 240 mmHg and 225 mmHg
  Response Change (single rat): 5 mmHg and 10 mmHg
[12]
  % Inhibition: 72%
  Average Change: 14.5 mmHg
  Control Before AII (single rat): 235 mmHg and 205 mmHg
  Response After AII (single rat): 245 mmHg and 224 mmHg
  Response Change (single rat): 10 mmHg and 19 mmHg
[13]
  % Inhibition: 81%
  Average Change: 10 mmHg
  Control Before AII (single rat): 235 mmHg and 225 mmHg
  Response After AII (single rat): 245 mmHg and 235 mmHg
  Response Change (single rat): 10 mmHg
[14]
  % Inhibition: 57%
  Average Change: 22.5 mmHg
  Control Before AII (single rat): 230 mmHg and 215 mmHg
  Response After AII (single rat): 250 mmHg and 240 mmHg
  Response Change (single rat): 20 mmHg and 25 mmHg
[15]
  % Inhibition: 23%
  Average Change: 29 mmHg
  Control Before AII (single rat): 215 mmHg and 205 mmHg
  Response After AII (single rat): 248 mmHg and 230 mmHg
  Response Change (single rat): 33 mmHg and 25 mmHg
[16]
  % Inhibition: 27%
  Average Change: 27.5 mmHg
  Control Before AII (single rat): 230 mmHg and 195 mmHg
  Response After AII (single rat): 255 mmHg and 225 mmHg
  Response Change (single rat): 25 mmHg and 30 mmHg
[17]
  % Inhibition: 31%
  Average Change: 26 mmHg
  Control Before AII (single rat): 210 mmHg and 193 mmHg
  Response After AII (single rat): 245 mmHg and 210 mmHg
  Response Change (single rat): 35 mmHg and 17 mmHg
[18]
  % Inhibition: 27%
  Average Change: 27.5 mmHg
  Control Before AII (single rat): 210 mmHg and 195 mmHg
  Response After AII (single rat): 245 mmHg and 215 mmHg
  Response Change (single rat): 35 mmHg and 20 mmHg
[19]
  % Inhibition: 0%
  Average Change: 37.5 mmHg
  Control Before AII (single rat): 210 mmHg and 190 mmHg
  Response After AII (single rat): 255 mmHg and 220 mmHg
  Response Change (single rat): 45 mmHg and 30 mmHg
[20]
  % Inhibition: 0%
  Average Change: 37.5 mmHg
  Control Before AII (single rat): 210 mmHg and 190 mmHg
  Response After AII (single rat): 260 mmHg and 215 mmHg
  Response Change (single rat): 50 mmHg and 25 mmHg
[21]
  % Inhibition: 6%
  Average Change: 40 mmHg
  Control Before AII (single rat): 215 mmHg and 200 mmHg
  Response After AII (single rat): 260 mmHg and 235 mmHg
  Response Change (single rat): 45 mmHg and 35 mmHg
[22]
  % Inhibition: 6%
  Average Change: 40 mmHg
  Control Before AII (single rat): 215 mmHg and 195 mmHg
  Response After AII (single rat): 255 mmHg and 235 mmHg
  Response Change (single rat): 40 mmHg
[23]
  % Inhibition: 18%
  Average Change: 35 mmHg
  Control Before AII (single rat): 215 mmHg and 195 mmHg
  Response After AII (single rat): 260 mmHg and 220 mmHg
  Response Change (single rat): 45 mmHg and 25 mmHg
[24]
  % Inhibition: 24%
  Average Change: 32.5 mmHg
  Control Before AII (single rat): 205 mmHg and 190 mmHg
  Response After AII (single rat): 240 mmHg and 220 mmHg
  Response Change (single rat): 35 mmHg and 30 mmHg
[25]
  % Inhibition: 12%
  Average Change: 37.5 mmHg
  Control Before AII (single rat): 215 mmHg and 180 mmHg
  Response After AII (single rat): 260 mmHg and 210 mmHg
  Response Change (single rat): 45 mmHg and 30 mmHg
[26]
  % Inhibition: 9%
  Average Change: 38.5 mmHg
  Control Before AII (single rat): 213 mmHg and 185 mmHg
  Response After AII (single rat): 265 mmHg and 210 mmHg
  Response Change (single rat): 52 mmHg and 25 mmHg
